Assays:
[1] = target: T1, DsbB (Escherichia coli, UniProt P0A6M2, C49V/C8A); experiment: cell-based; format: cell-based, E. coli; conditions: for EC50 RATIO (EC50 compound 16/EC50): E. coli DHB7935, liquid media
T1 construct: expressed in transfected cells; host or cells: E. coli DHB7935 (HK295 ΔdsbB λatt::malF-lacZ102, φ80::pDSW206dsbBhis6-c-myc)

[2] = target: T2, purified EcDsbB (Escherichia coli, UniProt P0A6M2, C49V/C8A); experiment: In vitro assay of purified DsbB (ubiquinone reduction); format: biochemical, E. coli; conditions: IC50 (μM), Table 9
T2 construct: made in house; host or cells: E. coli
Text: In addition to the in vivo assays of MICs, we have purified DsbB from E. coli and assessed the concentration dependence for inhibition of the enzyme's activity in oxidizing DsbA.
In this assay, we determine the concentration of a compound necessary to reduce the activity of purified DsbB enzyme by 50%. DsbB uses ubiquinone as a co-factor for the generation of disulfide bonds. DsbB oxidizes DsbA and reduces ubiquinone. When it is in the oxidized state, ubiquinone absorbs strongly at 275 nm but it has a diminished absorbance when it is in the reduced state at the same wavelength. Therefore, DsbB activity can be measured by the reduction of ubiquinone and this is assessed by following the decrease of absorbance of ubiquinone at 275 nm. The assay uses 20 μM purified and DTT-reduced DsbA, 20 uM UbQ-5, and 2 nM purified DsbB at pH6.0.
We tested several compounds for their inhibitory effect on EcDsbB-mediated ubiquinone reduction using purified enzymes. In this assay, reduced DsbA provides the source of electrons that are used by EcDsbB to reduce ubiquinone-5. The compounds show dose-dependent inhibition of EcDsbB with half-maximal inhibitory concentrations (IC50) in the low-μM range.

[3] = test system: M. tuberculosis H37Rv; experiment: M. tuberculosis H37Rv growth inhibition (Alamar Blue MIC); format: cell-based, Mycobacterium tuberculosis; conditions: three different media
[4] = target: E. coli DsbB (Escherichia coli, UniProt P0A6M2); experiment: Blue/white beta-galactosidase agar assay, DsbB-based E. coli strain; format: cell-based; conditions: agar assay
[5] = target: T3, VKOR of M. tuberculosis (Mycobacterium tuberculosis, UniProt I6X5W1); format: cell-based; conditions: agar assay
T3 sequence (I6X5W1 1-210): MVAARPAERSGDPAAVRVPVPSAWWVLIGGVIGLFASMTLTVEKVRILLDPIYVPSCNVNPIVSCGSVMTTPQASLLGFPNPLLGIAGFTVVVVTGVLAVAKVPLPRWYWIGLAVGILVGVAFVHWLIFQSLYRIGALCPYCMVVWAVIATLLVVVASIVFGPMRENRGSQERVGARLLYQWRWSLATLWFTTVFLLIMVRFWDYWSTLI

[6] = target: T4, Erp5 (Homo sapiens, UniProt Q15084); experiment: Insulin reductase activity assay, Erp5; format: biochemical
T4 construct: His; Passam F., Furie B., Furie B.C; (persons named as the source, not a vendor)
T4 sequence (Q15084 20-440): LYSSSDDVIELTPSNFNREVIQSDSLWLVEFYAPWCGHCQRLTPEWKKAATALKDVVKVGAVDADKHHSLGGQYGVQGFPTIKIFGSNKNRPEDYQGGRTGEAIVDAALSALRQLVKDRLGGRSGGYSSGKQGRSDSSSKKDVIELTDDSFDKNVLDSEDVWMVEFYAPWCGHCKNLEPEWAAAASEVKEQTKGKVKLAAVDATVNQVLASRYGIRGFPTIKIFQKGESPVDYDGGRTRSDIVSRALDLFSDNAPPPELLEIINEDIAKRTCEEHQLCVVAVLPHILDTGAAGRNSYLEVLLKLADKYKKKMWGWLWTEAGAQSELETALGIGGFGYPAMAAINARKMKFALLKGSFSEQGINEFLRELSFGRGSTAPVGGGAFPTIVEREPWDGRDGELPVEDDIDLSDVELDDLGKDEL

[7] = target: T5, PDI (Homo sapiens, UniProt P07237); experiment: Insulin reductase activity assay, PDI; format: biochemical
T5 construct: His; purchased Prospec, East Brunswick, N.J

[8] = target: T6, Erp72 (Homo sapiens, UniProt P13667); experiment: Insulin reductase activity assay, Erp72; format: biochemical
T6 construct: His; purchased Enzo, Farmingdale, N.Y
T6 sequence (P13667 21-645): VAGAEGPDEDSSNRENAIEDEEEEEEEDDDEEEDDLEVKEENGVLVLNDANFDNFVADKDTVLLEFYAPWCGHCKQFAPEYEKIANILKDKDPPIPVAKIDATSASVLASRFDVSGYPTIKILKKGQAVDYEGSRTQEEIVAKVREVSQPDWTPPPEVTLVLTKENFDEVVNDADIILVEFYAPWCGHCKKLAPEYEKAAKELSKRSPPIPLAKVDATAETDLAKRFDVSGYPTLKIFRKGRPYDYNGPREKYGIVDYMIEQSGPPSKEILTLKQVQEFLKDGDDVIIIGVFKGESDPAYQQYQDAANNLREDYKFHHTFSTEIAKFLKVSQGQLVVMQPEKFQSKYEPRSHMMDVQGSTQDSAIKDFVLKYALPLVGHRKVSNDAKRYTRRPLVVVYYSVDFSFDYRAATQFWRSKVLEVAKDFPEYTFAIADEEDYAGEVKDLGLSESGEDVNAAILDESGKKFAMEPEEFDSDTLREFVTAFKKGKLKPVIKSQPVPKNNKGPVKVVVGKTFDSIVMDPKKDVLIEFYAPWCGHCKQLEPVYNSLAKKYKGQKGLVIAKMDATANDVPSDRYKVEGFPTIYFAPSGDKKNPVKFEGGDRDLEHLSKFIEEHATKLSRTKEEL

[9] = target: T7, mouse VKORc1 (Mus musculus, UniProt Q9CRC0); experiment: Assay for VKOR enzymatic activity in mouse liver microsomes; format: biochemical
T7 construct: Solubilized mouse liver microsomes (20 μL) were added to 180 μL of buffer; from tissue; host or cells: mouse liver (solubilized microsomes)
T7 sequence (Q9CRC0 1-161): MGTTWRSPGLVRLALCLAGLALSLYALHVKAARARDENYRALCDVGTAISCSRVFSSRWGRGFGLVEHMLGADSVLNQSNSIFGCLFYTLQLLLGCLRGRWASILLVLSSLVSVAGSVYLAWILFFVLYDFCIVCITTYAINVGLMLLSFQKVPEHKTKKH

[10] = target: T8, Erp57 (Homo sapiens, UniProt P30101); experiment: Insulin reductase activity assay, Erp57; format: biochemical
T8 construct: His; purchased AbCam, Cambridge, Mass
T8 sequence (P30101 25-505): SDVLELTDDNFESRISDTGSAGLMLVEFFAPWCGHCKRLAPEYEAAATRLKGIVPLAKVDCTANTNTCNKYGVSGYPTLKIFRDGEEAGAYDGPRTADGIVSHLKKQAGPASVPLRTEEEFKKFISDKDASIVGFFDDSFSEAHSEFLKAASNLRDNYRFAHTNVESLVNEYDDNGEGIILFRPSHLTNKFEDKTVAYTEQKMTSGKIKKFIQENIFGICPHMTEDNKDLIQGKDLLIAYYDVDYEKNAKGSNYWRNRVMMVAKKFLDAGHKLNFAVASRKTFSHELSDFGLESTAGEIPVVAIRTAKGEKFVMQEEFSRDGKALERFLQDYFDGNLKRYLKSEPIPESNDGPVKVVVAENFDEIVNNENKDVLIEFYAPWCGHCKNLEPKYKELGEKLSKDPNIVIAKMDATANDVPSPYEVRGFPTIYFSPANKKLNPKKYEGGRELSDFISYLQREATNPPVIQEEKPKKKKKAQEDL

T1 sequence (P0A6M2 whole entry C8A/C49V): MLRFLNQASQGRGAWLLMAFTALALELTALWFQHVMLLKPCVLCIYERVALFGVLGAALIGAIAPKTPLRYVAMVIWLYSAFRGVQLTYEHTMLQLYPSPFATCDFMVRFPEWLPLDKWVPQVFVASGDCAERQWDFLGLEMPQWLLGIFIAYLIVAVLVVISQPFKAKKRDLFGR
T2 sequence (P0A6M2 whole entry C8A/C49V): as above
E. coli DsbB, sequence (P0A6M2 whole entry): as the sequence (P0A6M2 whole entry C8A/C49V) above, with A8C, V49C counted along it
T5 sequence (P07237 18-508, species assumed): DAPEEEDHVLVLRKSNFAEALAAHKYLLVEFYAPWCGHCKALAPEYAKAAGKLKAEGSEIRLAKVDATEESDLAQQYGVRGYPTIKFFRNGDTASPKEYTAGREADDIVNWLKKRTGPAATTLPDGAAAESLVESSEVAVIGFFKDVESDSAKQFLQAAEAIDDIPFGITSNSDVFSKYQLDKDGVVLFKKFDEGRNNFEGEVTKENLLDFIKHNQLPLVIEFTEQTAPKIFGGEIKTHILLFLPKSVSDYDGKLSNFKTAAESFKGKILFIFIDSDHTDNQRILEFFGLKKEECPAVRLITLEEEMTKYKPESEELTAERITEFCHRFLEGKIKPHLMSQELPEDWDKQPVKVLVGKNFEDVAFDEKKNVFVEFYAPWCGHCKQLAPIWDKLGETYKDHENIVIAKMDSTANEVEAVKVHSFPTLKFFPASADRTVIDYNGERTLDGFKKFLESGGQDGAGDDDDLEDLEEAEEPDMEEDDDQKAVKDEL

Row | Structure (SMILES) | EC50 [1] [µM] | further results
1 | COc1cccc(Cn2ncc(Cl)c(Cl)c2=O)c1 [Compound 16.11] | 232 | 
2 | O=c1c(Cl)c(Cl)cnn1Cc1c(Cl)cccc1Cl [Compound 16.37, 4,5-dichloro-2-(2,6-dichlorobenzyl)pyridazin-3(2H)-one] | 6570 | 
3 | O=c1c(Cl)c(Cl)cnn1-c1ccccc1 [Compound 16.2] | 2.04 | IC50 [2]: 2.34 µM; fold more inhibitory than compound 16 [1]: 10 fold; EC50 RATIO (EC50 compound 16/EC50) [1]: 2.49
4 | N#Cc1ccccc1Cn1ncc(Cl)c(Cl)c1=O [Compound 16.14] | 13.2 | EC50 RATIO (EC50 compound 16/EC50) [1]: 0.39
5 | O=c1c(Cl)c(Cl)cnn1Cc1ccncc1Cl [Compound 16.39] | 15.2 | 
6 | COc1c(Cl)cnn(-c2cccc(C)c2)c1=O [Compound 17] | 72.8 | IC50 [2]: 5.42 µM
7 | Cc1oncc1C(=O)Nc1ccccc1 [Compound 4] |  | effect on growth of M. tuberculosis (in words) [3]: no effects
8 | O=c1c(Cl)c(Cl)cnn1-c1ccccc1F [Compound 16.24] | 13.7 | EC50 RATIO (EC50 compound 16/EC50) [1]: 0.73
9 | O=c1c(Cl)c(Cl)cnn1Cc1ncccc1Cl [Compound 16.40, 4,5-dichloro-2-((3-chloropyridin-2-yl)methyl)pyridazin-3(2H)-one] | 10.8 | 
10 | O=c1c(Cl)c(Cl)cnn1Cc1ccc([N+](=O)[O-])cc1 [Compound 16.8] | 38.7 | 
11 | O=c1c(Cl)c(Cl)cnn1Cc1ccccc1F [Compound 16.23] | 3.09 | EC50 RATIO (EC50 compound 16/EC50) [1]: 1.65
12 | O=c1c(Cl)c(Cl)cnn1Cc1sccc1Cl [Compound 16.42, 4,5-dichloro-2-((3-chlorothiophen-2-yl)methyl)pyridazin-3(2H)-one] | 1.45 | 
13 | CCCCNc1c(Cl)cnn(-c2ccccc2)c1=O [Compound 13] | 30.4 | IC50 [2]: 8.12 µM
14 | O=c1c(Br)c(Cl)cnn1Cc1ccccc1Cl [Compound 16.43, 4-bromo-5-chloro-2-(2-chlorobenzyl)pyridazin-3(2H)-one] | 0.29 | 
15 | O=C1c2ccccc2C(=O)C1c1ccc(Br)cc1 [brominedione, reference compound] |  | inhibition of the DsbB-based strain, in words [4]: not of the DsbB-based strain; inhibition in the VKOR screen (MtbVKOR-based strain), in words [5]: strong inhibitor
16 | O=c1c(Cl)c(Cl)cnn1Cc1ccccc1OC(F)(F)F [Compound 16.36, 4,5-dichloro-2-(2-(trifluoromethoxy)benzyl)pyridazin-3(2)-one] | 7.12 | 
17 | CCOc1c(Cl)cnn(-c2ccccc2)c1=O [Compound 14] | 25.6 | IC50 [2]: 6.57 µM

Row | Structure (SMILES) | EC50 [1] [µM] | further results
18 | N#Cc1cccc(Cn2ncc(Cl)c(Cl)c2=O)c1 [Compound 16.9] | 509 | 
19 | O=c1c(Cl)c(Br)cnn1Cc1ccccc1Cl [Compound 16.44, 5-bromo-4-chloro-2-(2-chlorobenzyl)pyridazin-3(2H)-one] | 0.32 | 
20 | O=c1c(Cl)c(Cl)cnn1Cc1ccccc1Br [Compound 16.12] | 0.47 | fold more inhibitory than compound 16 [1]: 10 fold; EC50 RATIO (EC50 compound 16/EC50) [1]: 10.77
21 | COC(C)(C)C#CC(=O)c1cccc2ccccc12 [Compound 23] |  | effect on growth of M. tuberculosis (in words) [3]: inhibitor of M. tuberculosis growth; inhibition of the DsbB-based strain, in words [4]: weak inhibitor
22 | O=c1c(N2CCCC2)c(Cl)cnn1-c1ccccc1 [Compound 15] | 28.1 | IC50 [2]: 8.24 µM
23 | Cc1nnc(-c2cccc(C)c2C)c(C)n1 [Compound 8] |  | effect on growth of M. tuberculosis (in words) [3]: no effects
24 | CNC(=O)C#CCC1C(=O)c2ccccc2C1=O [Compound 1] |  | effect on growth of M. tuberculosis (in words) [3]: relatively strong effect in only one of the three media; inhibition of Erp5 activity [6]: inhibited; inhibition of PDI activity [7]: inhibited; inhibition of Erp72 activity [8]: inhibited; inhibition of VKOR activity [9]: inhibited; inhibition of Erp57 activity [10]: inhibited
25 | Cc1cccc(Cn2ncc(Cl)c(Cl)c2=O)c1 [Compound 16.4] | 13.9 | IC50 [2]: 1.27 µM; EC50 RATIO (EC50 compound 16/EC50) [1]: 0.37
26 | Cc1c(Cl)cnn(Cc2ccccc2Cl)c1=O [Compound 16.26, 5-chloro-2-(2-chlorobenzyl)-4-methylpyridazin-3(2H)-one] | 18.7 | 
27 | O=c1c(Cl)c(Cl)cnn1-c1ccccc1Cl [Compound 16.20] | 1.34 | EC50 RATIO (EC50 compound 16/EC50) [1]: 3.80
28 | O=c1c(Cl)c(Cl)cnn1Cc1c(F)cccc1Cl [Compound 16.22] | 18.1 | 
29 | O=c1c(Cl)c(Cl)cnn1Cc1cccs1 [Compound 16.41, 4,5-dichloro-2-(thiophen-2-ylmethyl)pyridazin-3(2H)-one] | 33.1 | 
30 | O=c1c(Cl)c(Cl)cnn1Cc1ccccc1C(F)(F)F [Compound 16.35, 4,5-dichloro-2-(2-(trifluoromethyl)benzyl)pyridazin-3(2H)-one] | 2.81 | 
31 | O=c1cc(Cl)cnn1Cc1ccccc1Cl [Compound 16.25, 5-chloro-2-(2-chlorobenzyl)pyridazin-3(2H)-one] | 8.37 | 
32 | Cc1ccccc1Cn1ncc(Cl)c(Cl)c1=O [Compound 16.13] | 3.56 | EC50 RATIO (EC50 compound 16/EC50) [1]: 1.43
33 | O=c1c(Br)c(Br)cnn1Cc1ccccc1 [Compound 16.17] | 13.2 | 
34 | O=c1c(Br)c(Br)cnn1Cc1ccccc1Cl [Compound 16.27, 4,5-dibromo-2-(2-chlorobenzyl)pyridazin-3(2H)-one] | 0.025 | 

Reference: patent US20170173008A1, “ANTIMICROBIAL AGENTS AND SCREENING METHODS” (PRESIDENT AND FELLOWS OF HARVARD COLLEGE, priority 2014, published 2017)
